In ChEMBL document CHEMBL1909046, “DrugMatrix in vitro pharmacology data” one finds IC50 data, which are given here for 5 compounds.

One test deals with T1, C-X-C chemokine receptor type 1 (Homo sapiens, UniProt P25024).
T1 sequence (P25024 whole entry): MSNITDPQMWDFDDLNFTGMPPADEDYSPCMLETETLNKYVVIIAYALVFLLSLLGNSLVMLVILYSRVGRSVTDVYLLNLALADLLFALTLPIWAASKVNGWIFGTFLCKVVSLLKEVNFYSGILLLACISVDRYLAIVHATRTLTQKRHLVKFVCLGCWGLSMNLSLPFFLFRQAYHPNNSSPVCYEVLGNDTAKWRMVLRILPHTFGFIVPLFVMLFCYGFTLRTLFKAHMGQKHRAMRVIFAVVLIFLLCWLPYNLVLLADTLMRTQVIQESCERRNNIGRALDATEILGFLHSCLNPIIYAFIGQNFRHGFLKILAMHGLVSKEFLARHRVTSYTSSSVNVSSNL
Experiment: not given
Conditions: not given
Regarding `CN(C)c1ccc(C(=C2C=CC(=[N+](C)C)C=C2)c2ccc(N(C)C)cc2)cc1.[Cl-]` [GENTIAN VIOLET], the IC50 entry is “Not Active”.

In the case of `CC(C)Cc1ccc(C(C)C(=O)O)cc1` (stereo not given) [IBUPROFEN], the IC50 result was “Not Active”.

Take `COc1ccc2c(c1)c(CC(=O)O)c(C)n2C(=O)c1ccc(Cl)cc1` [INDOMETHACIN]: the IC50 result is reported as “Not Active”.

As for `CC(C(=O)O)c1cccc(C(=O)c2ccccc2)c1` (stereo not given) [KETOPROFEN], the IC50 result was “Not Active”.

`COc1ccc2cc([C@H](C)C(=O)O)ccc2c1` [NAPROXEN]: the IC50 result was “Not Active”.

A further test deals with T2, Alpha-1B adrenergic receptor (Rattus norvegicus, UniProt P15823).
T2 sequence (P15823 whole entry): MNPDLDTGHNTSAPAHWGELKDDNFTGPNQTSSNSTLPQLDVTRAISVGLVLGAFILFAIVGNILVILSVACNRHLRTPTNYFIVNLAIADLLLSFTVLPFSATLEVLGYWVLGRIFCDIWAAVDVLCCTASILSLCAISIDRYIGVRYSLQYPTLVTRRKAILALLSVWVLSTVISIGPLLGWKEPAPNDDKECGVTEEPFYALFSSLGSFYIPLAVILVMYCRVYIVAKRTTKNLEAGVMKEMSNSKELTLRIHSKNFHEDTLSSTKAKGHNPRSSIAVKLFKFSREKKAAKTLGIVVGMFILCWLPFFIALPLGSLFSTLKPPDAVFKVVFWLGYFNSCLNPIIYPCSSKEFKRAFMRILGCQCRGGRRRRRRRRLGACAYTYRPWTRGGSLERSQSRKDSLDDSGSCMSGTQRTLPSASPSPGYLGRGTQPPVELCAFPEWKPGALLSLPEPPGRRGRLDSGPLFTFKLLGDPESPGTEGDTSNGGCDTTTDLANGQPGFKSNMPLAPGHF
The experiment in a line: DRUGMATRIX: Alpha-1B adrenergic receptor radioligand binding (ligand: prazosin). The class given is cell membranes, Wistar, Liver, Membrane. To be noted: Not Active = under 50% inhibition at 10 µM.
In the case of `CC(C)Cc1ccc(C(C)C(=O)O)cc1` (stereo not given) [IBUPROFEN], the IC50 result was “Not Active”.

As to `COc1ccc2c(c1)c(CC(=O)O)c(C)n2C(=O)c1ccc(Cl)cc1` [INDOMETHACIN], the IC50 entry is recorded as “Not Active”.

`CC(C(=O)O)c1cccc(C(=O)c2ccccc2)c1` (stereo not given) [KETOPROFEN]: the IC50 result is on record as “Not Active”.

On to `COc1ccc2cc([C@H](C)C(=O)O)ccc2c1` [NAPROXEN], for which the IC50 result was “Not Active”.

For the next test, the target named is T3, Interstitial collagenase (Homo sapiens, UniProt P03956).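 Also: MMP-1 enzyme inhibition assay using a peptide substrate; in other assays of this panel Not Active means under 50% inhibition at 10 µM.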
T3 sequence (P03956 whole entry): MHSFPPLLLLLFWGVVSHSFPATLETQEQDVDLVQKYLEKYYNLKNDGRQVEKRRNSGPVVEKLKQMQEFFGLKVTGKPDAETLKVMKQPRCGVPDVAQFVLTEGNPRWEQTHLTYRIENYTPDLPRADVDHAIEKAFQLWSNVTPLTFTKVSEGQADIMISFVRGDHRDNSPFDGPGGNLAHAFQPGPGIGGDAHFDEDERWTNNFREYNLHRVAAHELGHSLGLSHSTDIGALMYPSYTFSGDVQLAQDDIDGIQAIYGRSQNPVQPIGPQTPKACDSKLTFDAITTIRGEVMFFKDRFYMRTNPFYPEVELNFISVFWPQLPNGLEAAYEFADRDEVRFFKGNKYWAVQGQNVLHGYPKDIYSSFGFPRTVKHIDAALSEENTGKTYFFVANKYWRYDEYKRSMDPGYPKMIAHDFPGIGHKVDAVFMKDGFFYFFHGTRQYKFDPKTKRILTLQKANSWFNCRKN
In words: biochemical. Format: tissue-based, Rheumatoid synovial fibroblasts.
Conditions: not given
As to `CN(C)c1ccc(C(=C2C=CC(=[N+](C)C)C=C2)c2ccc(N(C)C)cc2)cc1.[Cl-]` [GENTIAN VIOLET], the IC50 entry is reported as “Not Active”.

For the compound `CC(C)Cc1ccc(C(C)C(=O)O)cc1` (stereo not given) [IBUPROFEN], the IC50 entry is reported as “Not Active”.

In the case of `COc1ccc2c(c1)c(CC(=O)O)c(C)n2C(=O)c1ccc(Cl)cc1` [INDOMETHACIN], the IC50 entry is “Not Active”.

On to `CC(C(=O)O)c1cccc(C(=O)c2ccccc2)c1` (stereo not given) [KETOPROFEN], for which the IC50 result is recorded as “Not Active”.

Take `COc1ccc2cc([C@H](C)C(=O)O)ccc2c1` [NAPROXEN]: the IC50 entry is listed as “Not Active”.

The target of the next test is Prostaglandin G/H synthase 1 (Homo sapiens, UniProt P23219). The experiment in a line: biochemical. The class given is tissue-based, Platelet. Conditions: platelet.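 Also: inhibition of COX-1 enzyme activity, with arachidonic acid supplied as substrate; in other assays of this panel Not Active means under 50% inhibition at 10 µM.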
Chain of Prostaglandin G/H synthase 1 (P23219 whole entry): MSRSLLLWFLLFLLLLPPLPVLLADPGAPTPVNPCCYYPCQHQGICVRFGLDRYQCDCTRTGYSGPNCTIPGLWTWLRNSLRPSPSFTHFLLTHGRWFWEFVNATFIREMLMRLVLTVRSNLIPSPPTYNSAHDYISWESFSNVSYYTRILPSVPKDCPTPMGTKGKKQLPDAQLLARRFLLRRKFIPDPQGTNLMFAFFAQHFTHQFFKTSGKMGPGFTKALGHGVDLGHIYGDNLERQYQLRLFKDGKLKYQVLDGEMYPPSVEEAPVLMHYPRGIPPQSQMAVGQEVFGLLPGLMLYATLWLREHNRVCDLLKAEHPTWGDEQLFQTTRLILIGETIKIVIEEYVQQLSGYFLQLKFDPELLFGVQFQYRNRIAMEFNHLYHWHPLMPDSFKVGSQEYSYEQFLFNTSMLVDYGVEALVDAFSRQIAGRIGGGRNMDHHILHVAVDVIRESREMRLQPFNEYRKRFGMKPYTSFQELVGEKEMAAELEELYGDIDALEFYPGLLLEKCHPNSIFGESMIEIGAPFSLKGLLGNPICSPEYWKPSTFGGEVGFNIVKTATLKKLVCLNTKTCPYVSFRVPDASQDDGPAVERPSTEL
Regarding `CN(C)c1ccc(C(=C2C=CC(=[N+](C)C)C=C2)c2ccc(N(C)C)cc2)cc1.[Cl-]` [GENTIAN VIOLET], the IC50 result is “Not Active”.

The next test deals with T4, Neutrophil elastase (Homo sapiens, UniProt P08246).
T4 sequence (P08246 whole entry): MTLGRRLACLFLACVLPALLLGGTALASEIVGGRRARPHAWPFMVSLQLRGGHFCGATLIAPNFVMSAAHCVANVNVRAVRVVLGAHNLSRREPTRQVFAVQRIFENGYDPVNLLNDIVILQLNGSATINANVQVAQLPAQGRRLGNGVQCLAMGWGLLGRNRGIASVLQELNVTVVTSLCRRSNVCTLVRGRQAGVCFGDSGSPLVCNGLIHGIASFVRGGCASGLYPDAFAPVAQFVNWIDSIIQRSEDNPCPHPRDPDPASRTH
Experiment: not given
The class given is tissue-based.
Conditions: not given
Turning to `CN(C)c1ccc(C(=C2C=CC(=[N+](C)C)C=C2)c2ccc(N(C)C)cc2)cc1.[Cl-]` [GENTIAN VIOLET], the IC50 entry is given as “Not Active”.

Turning to `CC(C)Cc1ccc(C(C)C(=O)O)cc1` (stereo not given) [IBUPROFEN], the IC50 result was “Not Active”.

In the case of `COc1ccc2c(c1)c(CC(=O)O)c(C)n2C(=O)c1ccc(Cl)cc1` [INDOMETHACIN], the IC50 entry is given as “Not Active”.

In the case of `CC(C(=O)O)c1cccc(C(=O)c2ccccc2)c1` (stereo not given) [KETOPROFEN], the IC50 result was “Not Active”.

As for `COc1ccc2cc([C@H](C)C(=O)O)ccc2c1` [NAPROXEN], the IC50 entry is recorded as “Not Active”.

For the next test, the target named is T5, Leukotriene C4 synthase (Cavia porcellus, UniProt A6XA80).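 Also: enzyme inhibition assay of leukotriene C4 synthase, using LTA4 as the substrate; in other assays of this panel Not Active means under 50% inhibition at 10 µM.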
T5 sequence (A6XA80 whole entry): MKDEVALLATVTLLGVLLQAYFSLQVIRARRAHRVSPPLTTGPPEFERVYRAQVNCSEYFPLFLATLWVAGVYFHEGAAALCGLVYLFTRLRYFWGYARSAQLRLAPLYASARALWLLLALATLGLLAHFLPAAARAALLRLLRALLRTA
Experiment: not given
The class given is tissue-based, Lung.
Conditions: not given
As to `CN(C)c1ccc(C(=C2C=CC(=[N+](C)C)C=C2)c2ccc(N(C)C)cc2)cc1.[Cl-]` [GENTIAN VIOLET], the IC50 entry is recorded as “Not Active”.

On to `CC(C)Cc1ccc(C(C)C(=O)O)cc1` (stereo not given) [IBUPROFEN], for which the IC50 result is recorded as “Not Active”.

As to `COc1ccc2c(c1)c(CC(=O)O)c(C)n2C(=O)c1ccc(Cl)cc1` [INDOMETHACIN], the IC50 result is listed as “Not Active”.

For the compound `CC(C(=O)O)c1cccc(C(=O)c2ccccc2)c1` (stereo not given) [KETOPROFEN], the IC50 entry is on record as “Not Active”.

For `COc1ccc2cc([C@H](C)C(=O)O)ccc2c1` [NAPROXEN], the IC50 entry is “Not Active”.

The target in another test is T6, Thromboxane-A synthase (Homo sapiens, UniProt P24557).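 Also: enzyme inhibition assay with PGH2 supplied as substrate; in other assays of this panel Not Active means under 50% inhibition at 10 µM.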
T6 sequence (P24557 whole entry): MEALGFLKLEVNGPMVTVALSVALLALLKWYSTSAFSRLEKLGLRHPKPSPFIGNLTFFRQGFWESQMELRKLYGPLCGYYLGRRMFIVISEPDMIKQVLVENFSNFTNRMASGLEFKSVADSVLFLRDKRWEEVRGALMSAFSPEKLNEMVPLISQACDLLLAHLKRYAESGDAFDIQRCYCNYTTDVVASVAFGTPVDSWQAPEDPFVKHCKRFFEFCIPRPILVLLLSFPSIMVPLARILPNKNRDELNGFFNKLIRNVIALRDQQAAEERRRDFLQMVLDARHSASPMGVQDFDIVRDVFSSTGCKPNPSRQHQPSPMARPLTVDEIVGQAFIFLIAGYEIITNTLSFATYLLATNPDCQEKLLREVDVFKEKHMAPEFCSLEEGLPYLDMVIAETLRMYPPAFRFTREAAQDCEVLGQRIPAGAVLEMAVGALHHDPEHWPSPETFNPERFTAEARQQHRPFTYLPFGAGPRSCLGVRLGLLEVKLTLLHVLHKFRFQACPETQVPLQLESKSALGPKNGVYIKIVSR
In words: biochemical. Conditions: platelet. The class given is tissue-based, Platelet.
On to `CN(C)c1ccc(C(=C2C=CC(=[N+](C)C)C=C2)c2ccc(N(C)C)cc2)cc1.[Cl-]` [GENTIAN VIOLET], for which the IC50 entry is given as “Not Active”.

Turning to `CC(C)Cc1ccc(C(C)C(=O)O)cc1` (stereo not given) [IBUPROFEN], the IC50 entry is “Not Active”.

For the compound `COc1ccc2c(c1)c(CC(=O)O)c(C)n2C(=O)c1ccc(Cl)cc1` [INDOMETHACIN], the IC50 entry is reported as “Not Active”.

As for `CC(C(=O)O)c1cccc(C(=O)c2ccccc2)c1` (stereo not given) [KETOPROFEN], the IC50 entry is given as “Not Active”.

`COc1ccc2cc([C@H](C)C(=O)O)ccc2c1` [NAPROXEN]: the IC50 result is “Not Active”.

For another test, the target named is T7, Cathepsin G (Homo sapiens, UniProt P08311).
T7 sequence (P08311 whole entry): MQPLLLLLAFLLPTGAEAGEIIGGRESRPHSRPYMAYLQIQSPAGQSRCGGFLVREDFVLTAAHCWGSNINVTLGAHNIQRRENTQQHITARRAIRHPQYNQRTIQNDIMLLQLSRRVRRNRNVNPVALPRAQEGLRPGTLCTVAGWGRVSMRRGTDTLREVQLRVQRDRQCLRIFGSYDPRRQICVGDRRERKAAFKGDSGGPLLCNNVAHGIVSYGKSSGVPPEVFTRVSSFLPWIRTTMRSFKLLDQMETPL
Experiment: not given
The class given is tissue-based. To be noted: neutrophil.
As for `CN(C)c1ccc(C(=C2C=CC(=[N+](C)C)C=C2)c2ccc(N(C)C)cc2)cc1.[Cl-]` [GENTIAN VIOLET], the IC50 result is “Not Active”.

On to `CC(C)Cc1ccc(C(C)C(=O)O)cc1` (stereo not given) [IBUPROFEN], for which the IC50 result is given as “Not Active”.

In the case of `COc1ccc2c(c1)c(CC(=O)O)c(C)n2C(=O)c1ccc(Cl)cc1` [INDOMETHACIN], the IC50 entry is on record as “Not Active”.

As to `CC(C(=O)O)c1cccc(C(=O)c2ccccc2)c1` (stereo not given) [KETOPROFEN], the IC50 result was “Not Active”.

Take `COc1ccc2cc([C@H](C)C(=O)O)ccc2c1` [NAPROXEN]: the IC50 entry is “Not Active”.

The target in the next test is Glycine receptor (Rattus norvegicus, UniProt P22771+P24524+P07727+P20781). Also: in other assays of this panel Not Active means under 50% inhibition at 10 µM.
Experiment: not given
The class given is cell membranes, Wistar, Spinal cord, Membrane.
Conditions: not given
Turning to `CN(C)c1ccc(C(=C2C=CC(=[N+](C)C)C=C2)c2ccc(N(C)C)cc2)cc1.[Cl-]` [GENTIAN VIOLET], the IC50 result was “Not Active”.

As for `CC(C)Cc1ccc(C(C)C(=O)O)cc1` (stereo not given) [IBUPROFEN], the IC50 entry was “Not Active”.

As for `COc1ccc2c(c1)c(CC(=O)O)c(C)n2C(=O)c1ccc(Cl)cc1` [INDOMETHACIN], the IC50 result is “Not Active”.

With `CC(C(=O)O)c1cccc(C(=O)c2ccccc2)c1` (stereo not given) [KETOPROFEN], the IC50 result is “Not Active”.

For `COc1ccc2cc([C@H](C)C(=O)O)ccc2c1` [NAPROXEN], the IC50 result was “Not Active”.
